Assay [1] has as its target Insulin-like growth factor 1 receptor (Homo sapiens) (UniProt P08069). Kind of assay: Inhibition of IGF1R at 10 uM.
The target of assay [2] is Receptor tyrosine-protein kinase erbB-2 (Homo sapiens) (UniProt P04626). Kind of assay: Inhibition of ErbB2 at 10 uM.
For assay [3], the target named is Hepatocyte growth factor receptor (Homo sapiens) (UniProt P08581). Kind of assay: Inhibition of c-Met at 10 uM.
Assay [4] is described as follows: Inhibition of PI3K-mediated Akt pathway by Western blot analysis. (A western blot detects proteins with antibodies after separation by electrophoresis.)
The target of assay [5] is Proto-oncogene tyrosine-protein kinase Src (Homo sapiens) (UniProt P12931). The conditions noted are these: at 10 µM.
Description: Inhibition of c-Src at 10 uM
Assay [6] can be described thus: Antiproliferative activity against human BEL-7402 cells.
Assay [7] deals with Platelet-derived growth factor receptor beta (Homo sapiens) (UniProt P09619). Kind of assay: Inhibition of PDGFRbeta at 10 uM.
The subject of the next assay is ECV-304. Kind of assay: Antiproliferative activity against human ECV304 cells. Format: functional, cell-based.
Assay [8] has as its target Proto-oncogene tyrosine-protein kinase receptor Ret (Homo sapiens) (UniProt P07949). The assay can be described thus: Inhibition of RET at 10 uM.
Assay [9] can be described thus: Inhibition of PI3K-mediated mTOR pathway by Western blot analysis.
Assay [10] deals with Macrophage-stimulating protein receptor (Homo sapiens) (UniProt Q04912). The assay can be described thus: Inhibition of RON at 10 uM.
Sequence of Macrophage-stimulating protein receptor (Homo sapiens) (Q04912 25-304 limits assumed): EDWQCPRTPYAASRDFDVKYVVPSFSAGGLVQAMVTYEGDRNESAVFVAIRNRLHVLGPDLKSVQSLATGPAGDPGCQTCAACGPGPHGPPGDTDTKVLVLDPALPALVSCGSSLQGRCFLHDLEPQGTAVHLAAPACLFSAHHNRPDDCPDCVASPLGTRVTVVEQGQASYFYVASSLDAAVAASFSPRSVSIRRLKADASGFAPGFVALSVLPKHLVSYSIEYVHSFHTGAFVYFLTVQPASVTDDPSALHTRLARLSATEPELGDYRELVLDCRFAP
Sequence of Macrophage-stimulating protein receptor (Homo sapiens) (Q04912 310-1400 limits assumed): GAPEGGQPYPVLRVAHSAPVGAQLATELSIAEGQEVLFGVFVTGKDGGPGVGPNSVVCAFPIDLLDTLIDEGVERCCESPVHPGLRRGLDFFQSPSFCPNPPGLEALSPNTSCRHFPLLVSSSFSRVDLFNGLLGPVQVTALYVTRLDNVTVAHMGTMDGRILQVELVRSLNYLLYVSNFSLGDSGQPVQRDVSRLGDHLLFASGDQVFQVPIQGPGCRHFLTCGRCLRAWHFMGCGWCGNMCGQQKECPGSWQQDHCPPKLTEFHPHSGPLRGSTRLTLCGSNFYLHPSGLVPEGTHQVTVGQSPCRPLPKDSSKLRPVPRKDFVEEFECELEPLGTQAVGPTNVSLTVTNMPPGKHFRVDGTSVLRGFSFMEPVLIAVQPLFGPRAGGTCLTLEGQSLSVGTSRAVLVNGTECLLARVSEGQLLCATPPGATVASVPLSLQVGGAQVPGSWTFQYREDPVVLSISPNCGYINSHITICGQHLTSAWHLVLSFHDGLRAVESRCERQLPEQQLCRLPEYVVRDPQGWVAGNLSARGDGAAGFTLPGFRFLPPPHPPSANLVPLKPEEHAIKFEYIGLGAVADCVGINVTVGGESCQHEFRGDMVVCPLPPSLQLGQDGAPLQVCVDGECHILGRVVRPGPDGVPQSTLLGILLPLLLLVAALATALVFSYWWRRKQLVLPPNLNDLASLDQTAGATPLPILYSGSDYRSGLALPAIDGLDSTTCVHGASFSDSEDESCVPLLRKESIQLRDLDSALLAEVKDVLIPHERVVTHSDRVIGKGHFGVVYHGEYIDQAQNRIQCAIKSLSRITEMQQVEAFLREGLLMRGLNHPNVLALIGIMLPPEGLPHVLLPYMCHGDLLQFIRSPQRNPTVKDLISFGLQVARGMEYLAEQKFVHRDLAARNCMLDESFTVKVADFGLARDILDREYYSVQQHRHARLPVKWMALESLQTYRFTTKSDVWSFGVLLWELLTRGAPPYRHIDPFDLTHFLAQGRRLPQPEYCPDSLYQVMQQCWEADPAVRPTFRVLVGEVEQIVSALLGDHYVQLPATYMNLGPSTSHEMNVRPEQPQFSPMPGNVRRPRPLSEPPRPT
Assay [11] addresses T1, Ephrin type-B receptor 2 (Homo sapiens) (UniProt P29323).
T1 sequence (whole entry): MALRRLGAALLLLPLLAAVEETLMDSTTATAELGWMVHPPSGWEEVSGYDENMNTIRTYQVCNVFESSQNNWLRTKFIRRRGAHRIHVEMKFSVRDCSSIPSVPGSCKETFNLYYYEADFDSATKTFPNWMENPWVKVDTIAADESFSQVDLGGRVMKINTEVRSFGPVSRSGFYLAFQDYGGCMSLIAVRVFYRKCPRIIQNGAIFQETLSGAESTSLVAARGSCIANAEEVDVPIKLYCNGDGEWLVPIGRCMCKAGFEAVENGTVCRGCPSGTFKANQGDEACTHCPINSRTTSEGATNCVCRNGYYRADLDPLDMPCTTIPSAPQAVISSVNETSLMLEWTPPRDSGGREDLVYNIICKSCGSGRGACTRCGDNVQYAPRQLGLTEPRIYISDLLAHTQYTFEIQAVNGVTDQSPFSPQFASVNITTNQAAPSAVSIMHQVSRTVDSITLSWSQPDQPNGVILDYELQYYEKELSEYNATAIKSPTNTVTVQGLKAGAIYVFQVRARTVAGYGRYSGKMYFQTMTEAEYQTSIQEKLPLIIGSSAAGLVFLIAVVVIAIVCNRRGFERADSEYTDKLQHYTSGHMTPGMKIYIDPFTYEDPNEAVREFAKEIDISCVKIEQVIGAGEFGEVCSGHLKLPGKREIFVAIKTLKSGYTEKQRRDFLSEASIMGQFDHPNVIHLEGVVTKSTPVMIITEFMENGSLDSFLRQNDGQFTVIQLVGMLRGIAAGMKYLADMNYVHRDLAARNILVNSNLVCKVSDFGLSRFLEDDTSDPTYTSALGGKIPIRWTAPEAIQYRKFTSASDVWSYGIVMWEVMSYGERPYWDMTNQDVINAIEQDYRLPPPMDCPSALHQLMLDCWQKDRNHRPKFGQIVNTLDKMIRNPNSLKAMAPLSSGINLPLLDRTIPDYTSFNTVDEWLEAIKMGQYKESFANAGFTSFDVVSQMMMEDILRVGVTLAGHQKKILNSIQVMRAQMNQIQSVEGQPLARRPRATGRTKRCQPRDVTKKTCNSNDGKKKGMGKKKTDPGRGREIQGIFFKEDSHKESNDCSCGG
The assay can be described thus: Inhibition of EPH-B2 at 10 uM.

Assay [12] deals with Vascular endothelial growth factor receptor 2 (Homo sapiens) (UniProt P35968). The conditions noted are these: at 10 µM.
Description: Inhibition of KDR at 10 uM
A short description of assay [13]: Inhibition of PI3K-mediated Akt phosphorylation at Ser473 at 3 uM by Western blot analysis.
Assay [14] is described as follows: Cell cycle arrest in human Rh30 cells assessed as increase in subG1 cell phase at 10 uM by flow cytometric analysis. The assay is classed as functional, cell-based. The conditions noted are these: SJRH30.
The nature of assay [15]: Cell cycle arrest in human Rh30 cells assessed as increase in G1 cell population at 1 to 10 uM by flow cytometric analysis. The assay is classed as functional, cell-based. Particulars: SJRH30.
The test system of a further assay is HT-29. The assay can be described thus: Antiproliferative activity against human HT-29 cells. Format: functional, cell-based.
Assay [16] concerns the target Phosphatidylinositol 4,5-bisphosphate 3-kinase catalytic subunit alpha isoform (Homo sapiens, UniProt P42336). The assay can be described thus: Inhibition of PI3Kalpha by luminescent kinase assay.
Assay [17] deals with Mast/stem cell growth factor receptor Kit (Homo sapiens) (UniProt P10721). Kind of assay: Inhibition of c-Kit at 10 uM.
Assay [18] deals with Platelet-derived growth factor receptor alpha (Homo sapiens) (UniProt P16234). The assay can be described thus: Inhibition of PDGFRalpha at 10 uM.
Another assay concerns MCF7. Kind of assay: Antiproliferative activity against human MCF7 cells. The assay is classed as functional, cell-based.
The target in assay [19] is Epidermal growth factor receptor (Homo sapiens) (UniProt P00533). The conditions noted are these: at 10 µM.
Sequence of Epidermal growth factor receptor (Homo sapiens) (P00533 whole entry): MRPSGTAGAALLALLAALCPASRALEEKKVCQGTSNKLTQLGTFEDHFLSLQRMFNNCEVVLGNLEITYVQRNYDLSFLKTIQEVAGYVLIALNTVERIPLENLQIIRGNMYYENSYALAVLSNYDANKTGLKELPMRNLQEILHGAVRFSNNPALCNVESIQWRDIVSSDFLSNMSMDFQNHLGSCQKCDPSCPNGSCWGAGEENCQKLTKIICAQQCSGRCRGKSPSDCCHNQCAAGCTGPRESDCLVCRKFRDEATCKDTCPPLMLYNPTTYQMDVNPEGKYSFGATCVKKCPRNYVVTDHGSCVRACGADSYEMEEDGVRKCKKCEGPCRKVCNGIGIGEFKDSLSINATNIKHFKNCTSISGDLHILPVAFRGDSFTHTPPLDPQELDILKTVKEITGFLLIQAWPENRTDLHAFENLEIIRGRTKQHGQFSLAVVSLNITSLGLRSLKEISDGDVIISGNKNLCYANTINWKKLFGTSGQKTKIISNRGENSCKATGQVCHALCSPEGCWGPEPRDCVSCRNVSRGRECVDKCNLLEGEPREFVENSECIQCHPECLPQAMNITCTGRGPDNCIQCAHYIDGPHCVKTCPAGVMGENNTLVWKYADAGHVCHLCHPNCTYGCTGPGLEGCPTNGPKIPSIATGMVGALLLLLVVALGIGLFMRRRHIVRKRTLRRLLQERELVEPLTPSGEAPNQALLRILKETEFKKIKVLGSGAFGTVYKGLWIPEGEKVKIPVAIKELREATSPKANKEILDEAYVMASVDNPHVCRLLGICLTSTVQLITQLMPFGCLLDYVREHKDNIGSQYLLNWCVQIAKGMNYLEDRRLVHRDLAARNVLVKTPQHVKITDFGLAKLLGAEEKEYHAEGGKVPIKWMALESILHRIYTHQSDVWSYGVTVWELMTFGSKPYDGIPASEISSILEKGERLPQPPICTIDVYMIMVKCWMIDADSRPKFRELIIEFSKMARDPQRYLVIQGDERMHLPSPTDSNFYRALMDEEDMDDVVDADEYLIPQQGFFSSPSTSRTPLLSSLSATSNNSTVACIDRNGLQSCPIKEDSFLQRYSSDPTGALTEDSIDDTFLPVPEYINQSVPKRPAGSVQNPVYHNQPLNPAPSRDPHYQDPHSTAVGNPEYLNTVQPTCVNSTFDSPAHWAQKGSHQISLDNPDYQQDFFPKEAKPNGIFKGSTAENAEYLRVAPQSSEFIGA
Description: Inhibition of EGFR at 10 uM
Assay [20] is described as follows: Inhibition of PI3K-mediated p70S6K1 phosphorylation at Thr389 at 3 uM by Western blot analysis.

Broadly, the inhibition is the drop in the measured response relative to a control, in per cent. The term IC50 denotes the concentration that gives 50% inhibition.

The structures appear in SMILES notation. Calls of active or inactive are those of the source. No cut-off for these calls is given here.

Sequence of Phosphatidylinositol 4,5-bisphosphate 3-kinase catalytic subunit alpha isoform (P42336 whole entry, canonical isoform): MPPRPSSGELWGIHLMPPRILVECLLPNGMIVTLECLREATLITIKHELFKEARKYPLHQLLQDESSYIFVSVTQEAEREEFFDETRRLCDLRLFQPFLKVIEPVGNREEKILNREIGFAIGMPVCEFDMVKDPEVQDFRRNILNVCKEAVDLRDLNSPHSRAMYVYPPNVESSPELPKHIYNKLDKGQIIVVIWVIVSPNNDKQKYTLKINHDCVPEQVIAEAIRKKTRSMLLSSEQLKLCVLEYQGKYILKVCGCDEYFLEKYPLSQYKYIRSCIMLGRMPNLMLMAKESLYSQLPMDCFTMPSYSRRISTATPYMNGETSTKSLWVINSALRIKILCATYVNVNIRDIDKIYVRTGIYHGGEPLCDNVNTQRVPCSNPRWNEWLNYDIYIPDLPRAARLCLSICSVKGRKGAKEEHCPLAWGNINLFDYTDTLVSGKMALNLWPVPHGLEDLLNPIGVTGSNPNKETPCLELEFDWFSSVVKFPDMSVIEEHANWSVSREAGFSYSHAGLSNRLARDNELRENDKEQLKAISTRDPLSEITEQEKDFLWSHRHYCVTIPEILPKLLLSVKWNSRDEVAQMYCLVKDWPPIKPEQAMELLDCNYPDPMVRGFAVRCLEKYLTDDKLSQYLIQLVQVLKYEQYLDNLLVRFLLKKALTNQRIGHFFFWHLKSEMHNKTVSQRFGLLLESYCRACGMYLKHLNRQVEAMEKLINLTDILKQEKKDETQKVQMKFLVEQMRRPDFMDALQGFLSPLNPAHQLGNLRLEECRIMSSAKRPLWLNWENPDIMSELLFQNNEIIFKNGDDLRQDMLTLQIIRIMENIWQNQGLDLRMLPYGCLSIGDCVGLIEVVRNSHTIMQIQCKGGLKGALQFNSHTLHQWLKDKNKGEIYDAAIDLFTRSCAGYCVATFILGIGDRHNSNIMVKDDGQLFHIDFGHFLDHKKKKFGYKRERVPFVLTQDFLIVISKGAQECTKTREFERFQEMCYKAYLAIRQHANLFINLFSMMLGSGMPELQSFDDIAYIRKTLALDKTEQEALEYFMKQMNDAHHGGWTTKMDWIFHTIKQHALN
Sequence of Proto-oncogene tyrosine-protein kinase receptor Ret (Homo sapiens) (P07949 whole entry): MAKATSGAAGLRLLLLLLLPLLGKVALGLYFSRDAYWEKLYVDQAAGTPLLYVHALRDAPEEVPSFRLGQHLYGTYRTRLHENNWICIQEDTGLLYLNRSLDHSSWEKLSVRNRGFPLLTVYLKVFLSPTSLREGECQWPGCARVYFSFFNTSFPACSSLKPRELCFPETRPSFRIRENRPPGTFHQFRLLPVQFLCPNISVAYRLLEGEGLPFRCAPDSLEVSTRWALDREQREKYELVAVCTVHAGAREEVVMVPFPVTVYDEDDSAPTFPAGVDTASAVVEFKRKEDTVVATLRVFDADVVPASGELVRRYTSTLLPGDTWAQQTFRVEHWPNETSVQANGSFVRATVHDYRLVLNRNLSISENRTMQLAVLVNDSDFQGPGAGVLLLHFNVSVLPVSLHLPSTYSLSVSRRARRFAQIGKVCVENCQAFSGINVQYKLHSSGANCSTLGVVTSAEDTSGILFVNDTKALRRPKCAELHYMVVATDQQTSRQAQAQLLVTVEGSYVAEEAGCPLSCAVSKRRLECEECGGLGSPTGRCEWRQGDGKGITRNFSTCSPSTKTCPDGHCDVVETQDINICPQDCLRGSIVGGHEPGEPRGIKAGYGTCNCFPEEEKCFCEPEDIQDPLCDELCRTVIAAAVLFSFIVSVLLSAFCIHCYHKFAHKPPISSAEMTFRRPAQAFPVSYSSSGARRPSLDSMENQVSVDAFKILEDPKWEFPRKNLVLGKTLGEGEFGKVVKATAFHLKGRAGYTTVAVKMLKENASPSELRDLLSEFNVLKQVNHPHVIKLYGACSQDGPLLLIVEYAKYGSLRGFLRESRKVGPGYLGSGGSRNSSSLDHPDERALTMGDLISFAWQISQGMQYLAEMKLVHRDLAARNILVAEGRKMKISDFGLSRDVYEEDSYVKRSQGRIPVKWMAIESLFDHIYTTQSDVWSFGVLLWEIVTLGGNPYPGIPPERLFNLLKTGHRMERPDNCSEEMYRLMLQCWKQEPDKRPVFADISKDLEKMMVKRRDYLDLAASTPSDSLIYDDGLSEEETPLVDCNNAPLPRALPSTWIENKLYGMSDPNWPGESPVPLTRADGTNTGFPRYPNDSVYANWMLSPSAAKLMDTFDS

With `N#C/C(=C\c1ccc(O)c(O)c1)C(=O)c1ccc(O)c(O)c1`, the inhibition in assay [1] worked out at 82.2%.

In assay [2], `CS(=O)(=O)CCNCc1ccc(-c2ccc3ncnc(Nc4ccc(OCc5cccc(F)c5)c(Cl)c4)c3c2)o1` gave an inhibition of 78%.

In the case of `C=CC(=O)Oc1cccc(-c2nc(N3CCOCC3)c3cc4ncccc4n3n2)c1`, the inhibition in assay [1] was found to be 41.1%; in assay [3] it was 32.8%; in assay [5], 56.2%; in [7], 6.3%; in assay [8], 31.9%; in [10] it was 3.3%. Besides, the inhibition in [11] is 53.4%; in assay [2] it was 21.3%; in assay [12] it was 28.4%; in assay [17] it was 18.9%; in assay [18], 29.4%; in assay [19], 17.8%. Besides, the “Akt pathway inhibition (qualitative)” value in assay [4] is “Dose-dependent effect”. Besides, the half-inhibitory concentration (IC50) in [6] amounted to 7.9 µM; in the assay with ECV-304, 4 µM; in the assay with HT-29, 29.9 µM; in assay [16], 0.0478 µM; in the assay on MCF7, 15.3 µM. Further, in [9], the “mTOR pathway inhibition (qualitative)” value is “Dose-dependent effect”. Also, the inhibition result in assay [13] and in assay [20] was “Active” throughout. In addition, the outcome in [14] and in assay [15] was Active.

Molecule `Cc1nc(Nc2ncc(C(=O)Nc3c(C)cccc3Cl)s2)cc(N2CCN(CCO)CC2)n1` came in with an inhibition in assay [11] of 89.2%.

`Oc1cccc(-c2nc(N3CCOCC3)c3cc4ncccc4n3n2)c1`: the inhibition was found to be 35.2% in assay [1]; 43.8% in assay [3]; 65.3% in [5]; 42.4% in [7]; 37.8% in assay [8]; 37% in assay [10]. For the same molecule, the inhibition in assay [11] was found to be 44%; in assay [2] it was 10.9%; in assay [12], 39.2%; in assay [17] it was 49.4%; in [18], 41.2%; in assay [19], 17.4%. Moreover, the “Akt pathway inhibition (qualitative)” value in assay [4] was “Dose-dependent effect”. For the same molecule, the IC50 in assay [6] was found to be 13.1 µM; in the assay with ECV-304, 6.7 µM; in the assay with HT-29, 22.3 µM; in assay [16] it was 0.0336 µM; in the assay on MCF7, 22.7 µM. Besides, the “mTOR pathway inhibition (qualitative)” value in assay [9] was “Dose-dependent effect”. Further, the inhibition result in assay [13] and in [20] was “Active” throughout. The outcome in [14] and in [15] was Active.

Turning to `Cc1[nH]c(/C=C2\C(=O)Nc3ccc(S(=O)(=O)N(C)c4cccc(Cl)c4)cc32)c(C)c1C(=O)N1CCN(C)CC1`, the inhibition amounted to 61.8% in assay [3] and 52.2% in [10].

Turning to `O=C(Oc1cccc(-c2nc(N3CCOCC3)c3cc4ncccc4n3n2)c1)c1ccco1`, the inhibition in assay [1] is 29.2%; in assay [3], 32.5%; in assay [5], 47.9%; in assay [7], 13.5%; in assay [8] it was 22.8%; in [10], 4.2%. The inhibition was 35.8% in assay [11]; 23.6% in [2]; 24.7% in [12]; 26.9% in assay [17]; 22.2% in assay [18]; 11.8% in [19]. Besides, the “Akt pathway inhibition (qualitative)” value in [4] was “Dose-dependent effect”. Besides, the IC50 in assay [6] was 9.3 µM; in the assay on ECV-304, 6 µM; in the assay on HT-29 it was 21.6 µM; in [16], 0.425 µM; in the assay with MCF7, 12.8 µM. Moreover, the “mTOR pathway inhibition (qualitative)” value in assay [9] is “Dose-dependent effect”. Besides, the inhibition result in [13] and in assay [20] was “inactive” each time. The result in assay [14] and in assay [15] was Active.

`CCCC(CCC)C(=O)Oc1cccc(-c2nc(N3CCOCC3)c3cc4ncccc4n3n2)c1`: the inhibition in assay [1] was 32.7%; in assay [3], 29%; in assay [5] it was 49.8%; in assay [7], 13.6%; in assay [8], 14.4%; in assay [10], 23.1%. The inhibition in [11] is 49.2%; in assay [2] it was 25.6%; in [12] it was 29.1%; in assay [17], 24.9%; in [18], 28.7%; in [19] it was 20.2%. Besides, in assay [4], the “Akt pathway inhibition (qualitative)” value is “Dose-dependent effect”. Moreover, the IC50 in assay [6] was determined as 5.6 µM; with ECV-304, 2.5 µM; with HT-29 it was 37.5 µM; in [16] it was 0.0607 µM; with MCF7 it was 7.3 µM. In addition, the “mTOR pathway inhibition (qualitative)” value in [9] was “Dose-dependent effect”. Moreover, the inhibition result in assay [13] and in assay [20] was “Active” each time. For the same molecule, the outcome in assay [14] and in [15] was Active.

Turning to `Oc1cccc(-c2nc(N3CCOCC3)c3oc4ncccc4c3n2)c1` [PI-103], the IC50 was 7 µM in [6], 6.3 µM with ECV-304, greater than 50 µM in the assay with HT-29 and 22.4 µM in the assay with MCF7. For the same molecule, the result in [15] was Active.

For the molecule `O=C(Oc1cccc(-c2nc(N3CCOCC3)c3cc4ncccc4n3n2)c1)c1ccncc1`, the inhibition in assay [1] stood at 39.8%; in assay [3] it was 34.8%; in [5], 67.2%; in [7] it was 34.7%; in assay [8], 28.9%; in assay [10], 27.2%. The inhibition in [11] is 53.8%; in assay [2], 23.3%; in [12], 35.4%; in assay [17] it was 45.2%; in assay [18] it was 40%; in [19], 6.2%. In addition, the “Akt pathway inhibition (qualitative)” value in [4] was “Dose-dependent effect”. The IC50 in [6] stood at 13.3 µM; in the assay with ECV-304 it was 10 µM; with HT-29, 28 µM; in assay [16] it was 0.421 µM; in the assay on MCF7, 20 µM. Moreover, in assay [9], the “mTOR pathway inhibition (qualitative)” value is “Dose-dependent effect”. For the same molecule, the inhibition result in assay [13] and in [20] was “inactive” in each case. Further, the outcome in assay [14] and in [15] was Active.

Turning to `CCN(CC)CCNC(=O)c1c(C)[nH]c(/C=C2\C(=O)Nc3ccc(F)cc32)c1C`, the inhibition in [7] was 90.6%; in [8], 84.8%; in assay [17] it was 84.8%; in assay [18], 93%.

These data come from ChEMBL document CHEMBL1933031, “Discovery and bioactivity of 4-(2-arylpyrido[3',2':3,4]pyrrolo[1,2-f][1,2,4]triazin-4-yl) morpholine derivatives as novel PI3K inhibitors” (Bioorg Med Chem Lett, 2012).
